Data taken from patent publication US8288552B2, “Dihydropyridone amidesas P2X7 modulators” (Roche Palo Alto LLC, priority 2008, dated 2012).

Target: T1, P2X7 (UniProt Q99572)
T1 sequence (Q99572 1-595): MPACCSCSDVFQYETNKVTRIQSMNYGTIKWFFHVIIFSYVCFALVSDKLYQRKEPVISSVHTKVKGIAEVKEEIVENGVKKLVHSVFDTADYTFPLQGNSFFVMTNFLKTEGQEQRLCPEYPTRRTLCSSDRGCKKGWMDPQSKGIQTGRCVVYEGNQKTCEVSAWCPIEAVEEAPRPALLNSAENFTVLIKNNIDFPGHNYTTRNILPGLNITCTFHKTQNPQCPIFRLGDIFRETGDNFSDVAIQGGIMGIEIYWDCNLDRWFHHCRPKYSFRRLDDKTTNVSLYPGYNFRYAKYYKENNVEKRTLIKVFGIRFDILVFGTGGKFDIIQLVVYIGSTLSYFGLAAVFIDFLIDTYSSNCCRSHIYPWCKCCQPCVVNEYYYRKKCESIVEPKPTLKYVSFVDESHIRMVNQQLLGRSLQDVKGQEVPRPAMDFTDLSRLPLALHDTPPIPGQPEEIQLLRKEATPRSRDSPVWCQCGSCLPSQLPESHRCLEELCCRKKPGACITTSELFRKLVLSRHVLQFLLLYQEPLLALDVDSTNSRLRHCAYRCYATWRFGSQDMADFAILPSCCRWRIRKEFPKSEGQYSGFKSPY
Test: P2X7 pKi of Table 1
Format: cell-based
Experimental: Intracellular Calcium Flux (FLIPR) Assay
Compound and Reagent Preparation
Stock solutions of compounds were prepared from powders as a 10 mM DMSO stock solution. These solutions were stored at RT during the two week period of these experiments to prevent freeze-thaw of the DMSO stocks. The DMSO stocks were added to the appropriate assay buffer at a concentration of 10 μM, and then diluted serially to the final concentrations that were tested. […] The aqueous solutions of compounds as well as ATP (Sigma A7699) and BzATP (Sigma B6396) were prepared fresh for each day of experiment.
1321N1 cells stably expressing the full length human P2X7 gene (1321N1-hP2X7) and HEK293 cells stably expressing the full length rat P2X7 gene (HEK293-rP2X7) were obtained from the Roche Cell Culture Facility. 1321N1-hP2X7 cells were grown in Dulbecco's Modified Eagle's Medium (DMEM) high glucose supplemented with 10% FBS and 250 μg/mL G418. HEK293-rP2X7 cells were grown in DMEM/F-12 supplemented with 10% FBS, 1 mM CaCl2, 2 mM MgCl2, 2 mM L-Glutamine and 500 μg/ml G418. Cells were split such that they never became >70% confluent.
Intracellular Calcium Flux (FLIPR)
On the day prior to the experiment, 1321N1-hP2X7 or HEK293-rP2X7 cells were released into suspension with calcium-free PBS+Versene and washed by centrifugation with calcium-free PBS to remove the Versene. Cells were resuspended in growth medium at a density of 2.5×10^5 cells/mL and seeded into black walled, clear bottom 96 well plates (50,000 cells/well) approximately 18 hr prior to intracellular calcium flux experiments.
On the day of the experiment, plates were washed with FLIPR buffer (calcium- and magnesium-free Hank's Balanced Salt Solution (HBSS) supplemented with 10 mM Hepes, 2.5 mM probenecid and 2 mM calcium chloride) using a BIO-TEK 96 channel plate washer and incubated with […] fluo-3 dye at 37° C. for one hr. The dye was then removed by plate washing and the cells were allowed to equilibrate for 20 min at room temperature with antagonist or vehicle (FLIPR buffer). Agonist (100 μM BzATP final concentration for hP2X7; 5 μM BzATP final concentration or rP2X7) was added online with the FLIPR and fluorescence measurements made at 1 sec intervals for 60 sec followed by 3 sec intervals for a further 4 min (5 min total). A final addition of 5 μM ionomycin was made and the maximal BzATP-evoked fluorescence normalized to the maximal ionomycin-evoked fluorescence.

| Compound | pKi |
| --- | --- |
| COc1cc(Br)c(NC(=O)C2=CNC(=O)C[C@@H]2c2ccccc2)cc1OC [Compound 12, (R)-6-Oxo-4-phenyl-1,4,5,6-tetrahydro-pyridine-3-carboxylic acid(2-bromo-4,5-dimethoxy-phenyl)-amide] | 6.155 |
| CCOC(=O)Cc1ccc(C)c(NC(=O)C2=CNC(=O)C[C@H]2c2ccc(F)cc2)c1 [Compound 145, (3-{[(S)-4-(4-Fluoro-phenyl)-6-oxo-1,4,5,6-tetrahydro-pyridine-3-carbonyl]-amino}-4-methyl-phenyl)-acetic acid ethyl ester] | 6.55 |
| Cc1ccc(Cl)cc1NC(=O)C1=CNC(=O)C[C@H]1c1cccc(F)c1 [Compound 92, (S)-4-(3-Fluoro-phenyl)-6-oxo-1,4,5,6-tetrahydro-pyridine-3-carboxylic acid(5-chloro-2-methyl-phenyl)-amide] | 6.995 |
| COc1cc(NC(=O)C2=CNC(=O)CC2c2cccc(F)c2)c(Br)cc1F (stereo not shown) [Compound 35, 4-(3-Fluoro-phenyl)-6-oxo-1,4,5,6-tetrahydro-pyridine-3-carboxylic acid(2-bromo-4-fluoro-5-methoxy-phenyl)-amide] | 6.65 |
| Cc1ccc(C)c(NC(=O)C2=CNC(=O)C[C@@H]2c2ccc(F)cc2)c1 [Compound 55, (R)-4-(4-Fluoro-phenyl)-6-oxo-1,4,5,6-tetrahydro-pyridine-3-carboxylic acid (2,5-dimethyl-phenyl)-amide] | 7.535 |
| O=C1CC(c2ccc(F)cc2)C(C(=O)Nc2cc3c(cc2Cl)OC(F)(F)O3)=CN1 (stereo not shown) [Compound 139, 4-(4-Fluoro-phenyl)-6-oxo-1,4,5,6-tetrahydro-pyridine-3-carboxylic acid(6-chloro-2,2-difluoro-benzo[1,3]dioxol-5-yl)-amide] | 5.46 |
| COc1cc(C)c(NC(=O)C2=CNC(=O)CC2c2ccc(Cl)cc2)cc1OC (stereo not shown) [Compound 122, 4-(4-Chloro-phenyl)-6-oxo-1,4,5,6-tetrahydro-pyridine-3-carboxylic acid(4,5-dimethoxy-2-methyl-phenyl)-amide] | 6.465 |
| Cc1c(CO)cccc1NC(=O)C1=CNC(=O)C[C@@H]1c1ccc(F)cc1 [Compound 107, (R)-4-(4-Fluoro-phenyl)-6-oxo-1,4,5,6-tetrahydro-pyridine-3-carboxylic acid(3-hydroxymethyl-2-methyl-phenyl)-amide] | 5.36 |
| COc1cc(C)c(NC(=O)C2=CN(CCO)C(=O)C[C@H]2c2ccc(F)cc2)cc1OC [Compound 146, (S)-4-(4-Fluoro-phenyl)-1-(2-hydroxy-ethyl)-6-oxo-1,4,5,6-tetrahydro-pyridine-3-carboxylic acid(4,5-dimethoxy-2-methyl-phenyl)-amide] | 7.71 |
| COc1cc(Br)c(NC(=O)C2=CNC(=O)C[C@H]2c2ccccc2)cc1OC [Compound 13, (S)-6-Oxo-4-phenyl-1,4,5,6-tetrahydro-pyridine-3-carboxylic acid(2-bromo-4,5-dimethoxy-phenyl)-amide] | 7.455 |
| Cc1cc(Cl)c(CO)cc1NC(=O)C1=CNC(=O)C[C@H]1c1ccc(F)cc1 [Compound 104, (S)-4-(4-Fluoro-phenyl)-6-oxo-1,4,5,6-tetrahydro-pyridine-3-carboxylic acid(4-chloro-5-hydroxymethyl-2-methyl-phenyl)-amide] | 7.21 |
| Cc1c(CCO)cccc1NC(=O)C1=CNC(=O)C[C@H]1c1ccc(F)cc1 [Compound 100, (S)-4-(4-Fluoro-phenyl)-6-oxo-1,4,5,6-tetrahydro-pyridine-3-carboxylic acid[3-(2-hydroxy-ethyl)-2-methyl-phenyl]-amide] | 6.803 |
| Cc1c(NC(=O)C2=CNC(=O)C[C@H]2c2ccc(F)cc2)cc(OCCO)c(F)c1F [Compound 121, (S)-4-(4-Fluoro-phenyl)-6-oxo-1,4,5,6-tetrahydro-pyridine-3-carboxylic acid [3,4-difluoro-5-(2-hydroxy-ethoxy)-2-methyl-phenyl]-amide] | 7.41 |
